Results from patent US6586604B2, “Tricyclic amine derivatives” (Daiichi Pharmaceutical Co., Ltd., priority 1996, dated 2003).
≈ marks a conversion by molar mass, not a printed value.

Tests used:
E. coil, NIHJ = test: Antimicrobial activity (MIC), standard method of the Japan Chemotherapeutic Society; format: cell-based; conditions: for MIC: read-out: minimum inhibitory concentration (MIC)
Protocol: (§1) The antimicrobial activity of the compounds according to the present invention was determined in accordance with the standard method specified by the Japan Chemotherapeutic Society.

Ps. Aeruginosa, 32121 = test: as above; format: cell-based; conditions: for MIC: Pseudomonas aeruginosa, read-out: minimum inhibitory concentration (MIC)
Protocol: as §1

Str. Pyogenes, G-36 = test: as above; format: cell-based; conditions: for MIC: Streptococcus pyogenes, read-out: minimum inhibitory concentration (MIC)
Protocol: as §1

Pr. Mirabilis, IFO-3849 = test: as above; format: cell-based; conditions: for MIC: Proteus mirabilis, IFO3849, read-out: minimum inhibitory concentration (MIC)
Protocol: as §1

S. aureaus, 209P = test: as above; format: cell-based; conditions: for MIC: read-out: minimum inhibitory concentration (MIC)
Protocol: as §1

Ser. Marcescens, 10100 = test: as above; format: cell-based; conditions: for MIC: Serratia marcescens, read-out: minimum inhibitory concentration (MIC)
Protocol: as §1

Pr. vulgaris, 08601 = test: as above; format: cell-based; conditions: for MIC: Proteus vulgaris, read-out: minimum inhibitory concentration (MIC)
Protocol: as §1

[1] = tested on: Str. Faecalis, ATCC-19433; test: as above; format: cell-based; conditions: for MIC: Enterococcus faecalis, ATCC19433, read-out: minimum inhibitory concentration (MIC)
Protocol: as §1

S. aureus, 870307 = test: as above; format: cell-based; conditions: for MIC: Staphylococcus aureus, read-out: minimum inhibitory concentration (MIC)
Protocol: as §1

S. flexneli, 2A 5503 = test: as above; format: cell-based; conditions: for MIC: read-out: minimum inhibitory concentration (MIC); for minimum inhibitory concentration (MIC): S. flexneli, 2A 5503
Protocol: as §1

S. pneumoniae, J24 = test: as above; format: cell-based; conditions: for MIC: Streptococcus pneumoniae, read-out: minimum inhibitory concentration (MIC)
Protocol: as §1

S. epidermidis, 56500 = test: as above; format: cell-based; conditions: for MIC: Staphylococcus epidermidis, read-out: minimum inhibitory concentration (MIC)
Protocol: as §1

[2] = tested on: Ps. Maltophilia, 11D-1275; test: as above; format: cell-based; conditions: for MIC: Stenotrophomonas maltophilia, read-out: minimum inhibitory concentration (MIC)
Protocol: as §1

Ps. Aeruginosa, 32104 = test: as above; format: cell-based; conditions: for MIC: Pseudomonas aeruginosa, read-out: minimum inhibitory concentration (MIC)
Protocol: as §1

SMILES | melting point | MIC (E. coil, NIHJ) [µg/mL] | MIC (Ps. Aeruginosa, 32121) [µg/mL] | MIC (Str. Pyogenes, G-36) [µg/mL] | MIC (Pr. Mirabilis, IFO-3849) [µg/mL] | MIC (S. aureaus, 209P) [µg/mL] | minimum inhibitory concentration (MIC) (E. coil, NIHJ) | minimum inhibitory concentration (MIC) (Ps. Aeruginosa, 32121) [µg/mL] | minimum inhibitory concentration (MIC) (Str. Pyogenes, G-36) | minimum inhibitory concentration (MIC) (Pr. Mirabilis, IFO-3849) [µg/mL] | minimum inhibitory concentration (MIC) (S. aureaus, 209P) | minimum inhibitory concentration (MIC) (Ser. Marcescens, 10100) [µg/mL] | minimum inhibitory concentration (MIC) (Pr. vulgaris, 08601) | minimum inhibitory concentration (MIC) [1] [µg/mL] | minimum inhibitory concentration (MIC) (S. aureus, 870307) [µg/mL] | minimum inhibitory concentration (MIC) (S. flexneli, 2A 5503) | minimum inhibitory concentration (MIC) (S. pneumoniae, J24) | minimum inhibitory concentration (MIC) (S. epidermidis, 56500) | minimum inhibitory concentration (MIC) [2] [µg/mL] | minimum inhibitory concentration (MIC) (Ps. Aeruginosa, 32104) [µg/mL] | also measured
Nc1c(F)c(N2CC3CC4CC4(N)C3C2)c(F)c2c1c(=O)c(C(=O)O)cn2C1CC1 (stereo not drawn) [Example 1, 5-Amino-7-(1-amino-4-azatricyclo[6.1.0.0^2,6]-nonan-4-yl)-1-cyclopropyl-6,8-difluoro-1,4-dihydro-4-oxoquinoline-3-carboxylic Acid] | 197 to 202 °C (dec.) | ≤ 0.003 | 0.2 (≈ 0.48 µM) | 0.006 (≈ 0.0144 µM) | 0.05 (≈ 0.12 µM) | ≤ 0.003 |  |  |  |  |  |  |  |  |  |  |  |  |  |  | MIC (Ser. Marcescens, 10100): 0.1 µg/mL (≈ 0.24 µM); MIC (Pr. vulgaris, 08601): 0.1 µg/mL (≈ 0.24 µM); MIC [1]: 0.025 µg/mL (≈ 0.06 µM); MIC (S. aureus, 870307): 0.1 µg/mL (≈ 0.24 µM); MIC (S. flexneli, 2A 5503): ≤ 0.003 µg/mL; MIC (S. pneumoniae, J24): ≤ 0.003 µg/mL; MIC (S. epidermidis, 56500): 0.006 µg/mL (≈ 0.0144 µM); MIC [2]: 0.05 µg/mL (≈ 0.12 µM); MIC (Ps. Aeruginosa, 32104): 0.2 µg/mL (≈ 0.48 µM)
C[C@H]1COc2c(N3C[C@H]4CC5C[C@]5(N)[C@H]4C3)c(F)cc3c(=O)c(C(=O)O)cn1c23 (stereo partly drawn) [Example 2, 10-{(1R,2R,6S)-1-Amino-4-azatricyclo[6.1.0.0^2,6]nonan-4-yl}-9-fluoro-2,3-dihydro-3-(S)-methyl-7-oxo-7H-pyrido[1.2.3-de][1,4]benzoxazine-6-carboxylic Acid] |  |  |  |  |  |  | ≦0.003 μg/ml | 0.05 (≈ 0.125 µM) | 0.013 µg/mL (≈ 0.0325 µM) | 0.10 (≈ 0.25 µM) | 0.006 µg/mL (≈ 0.015 µM) | 0.05 (≈ 0.125 µM) | 0.025 µg/mL (≈ 0.0626 µM) | 0.05 (≈ 0.125 µM) | 0.20 (≈ 0.501 µM) | 0.006 µg/mL (≈ 0.015 µM) | 0.013 µg/mL (≈ 0.0325 µM) | 0.025 µg/mL (≈ 0.0626 µM) | 0.20 (≈ 0.501 µM) | 0.20 (≈ 0.501 µM) | 
COc1c(N2CC3CC4CC4(N)C3C2)c(F)cc2c(=O)c(C(=O)O)cn([C@@H]3C[C@@H]3F)c12 (stereo partly drawn) [Example 5, 7-{1-Amino-4-azatricyclo[6.1.0.0^2,6]nonan-4-yl}-6-fluoro-1-[2-(S)-fluoro-1-(R)-cyclopropyl]-1,4-dihydro-8-methoxy-4-oxoquinoline-3-carboxylic Acid] | 146 to 159 °C (dec.) | ≤ 0.003 | 0.05 (≈ 0.116 µM) | ≤ 0.003 | ≤ 0.003 | ≤ 0.003 |  |  |  |  |  |  |  |  |  |  |  |  |  |  | MIC (Ser. Marcescens, 10100): 0.05 µg/mL (≈ 0.116 µM); MIC (Pr. vulgaris, 08601): 0.006 µg/mL (≈ 0.0139 µM); MIC [1]: 0.025 µg/mL (≈ 0.0579 µM); MIC (S. aureus, 870307): 0.013 µg/mL (≈ 0.0301 µM); MIC (S. flexneli, 2A 5503): ≤ 0.003 µg/mL; MIC (S. pneumoniae, J24): ≤ 0.003 µg/mL; MIC (S. epidermidis, 56500): ≤ 0.003 µg/mL; MIC [2]: 0.05 µg/mL (≈ 0.116 µM); MIC (Ps. Aeruginosa, 32104): 0.1 µg/mL (≈ 0.232 µM)
Cc1c(N2CC3CC4CC4(N)C3C2)c(F)c(N)c2c(=O)c(C(=O)O)cn([C@@H]3C[C@@H]3F)c12 (stereo partly drawn) [Example 6, 5-Amino-7-{1-amino-4-azatricyclo[6.1.0.0^2,6]nonan-4-yl}-6-fluoro-1-[2-(S)-fluoro-1-(R)-cyclopropyl]-1,4-dihydro-8-methyl-4-oxoquinoline-4-carboxylic Acid] |  |  |  |  |  |  | ≦0.003 μg/ml | 0.025 (≈ 0.0581 µM) | ≦0.003 μg/ml | 0.025 (≈ 0.0581 µM) | ≦0.003 μg/ml | 0.05 (≈ 0.116 µM) | 0.025 µg/mL (≈ 0.0581 µM) | 0.013 (≈ 0.0302 µM) | 0.05 (≈ 0.116 µM) | ≦0.003 μg/ml | ≦0.003 μg/ml | ≦0.003 μg/ml | 0.025 (≈ 0.0581 µM) | 0.10 (≈ 0.232 µM) | 
Cc1c(N2CC3CC4CC4(N)C3C2)c(F)cc2c(=O)c(C(=O)O)cn([C@@H]3C[C@@H]3F)c12 (stereo partly drawn) [Example 7, 7-(1-Amino-4-azabicyclo[6.1.0.0^2,6]nonan-4-yl)-6-fluoro-1-[2-(S)-fluoro-1-(R)-cyclopropyl]-8-methyl-1,4-dihydro-4-oxoquinoline-3-carboxylic Acid] |  |  |  |  |  |  | ≦0.003 μg/ml | 0.025 (≈ 0.0602 µM) | ≦0.003 μg/ml | 0.013 (≈ 0.0313 µM) | ≦0.003 μg/ml | 0.025 (≈ 0.0602 µM) | ≦0.003 μg/ml | 0.013 (≈ 0.0313 µM) | 0.013 (≈ 0.0313 µM) | ≦0.003 μg/ml | ≦0.003 μg/ml | ≦0.003 μg/ml | 0.025 (≈ 0.0602 µM) | 0.05 (≈ 0.12 µM) | 
